# According to patent US20260144875A1, “COMPOSITIONS AND METHODS FOR CROSSLINKING STRUCTURAL PROTEINS” (ADS Therapeutics LLC, priority 2022, published 2026):
# What was measured:
# [1] = Impurities from riboflavin tetrabutyrate in organic solvents; assay type: physicochemical; settings: 25° C.; for Impur. 0 hr / Impur. 1 Month / Impur. 14 Days: RTB
# Procedure: The impurities present in MCT, F6H8, or combinations, with riboflavin tetrabutyrate (RTB), at 25° C. was investigated. Using similar sample analysis methods described in Examples 1a-1c, the impurities were determined.
# porcine corneas = assay: Ex vivo study (Dresden method), RTB-UVA crosslinking, static stress-strain, de-epithelialized corneas; settings: de-epithelialized porcine corneal strips; 0.1% RTB in MCT or F6H8 or combination; UVA 370 nm, 3 mW/cm2, 30 minutes
# Procedure: Fresh porcine cadaver eyes with intact epithelia and clear corneas are retrieved from the local slaughterhouse within 2 to 5 hours post-mortem. The eyes are de-epithelialized mechanically, removing the corneoscleral ring with scissors. […] Because of the natural thickness of the porcine cornea, only 1 corneal strip with clearly cut perpendicular edges could be prepared properly from each eye. Half of the corneas are treated with RTB-UVA irradiation, and half are used as untreated controls. Using ultrasound pachymetry (Pachette, Technomed), the central corneal thickness is determined in the eyes. […]
# The porcine corneal strips are clamped horizontally at a distance of 8.0 mm between the jaws of a commercially available microcomputer-controlled biomaterial tester (Minimat, Rheometric Scientific GmbH. To include the physiological stress range, a prestress of 5×10^3 Pa (1 Pa=1 N/m2) is used, which requires a force of 20 mN in porcine corneas. The strain is then increased linearly with a velocity of 1.5 mm min-1, and the stress is measured up to 2×10^5 Pa. The stress-strain values are fitted by an exponential function σ=A exp (BX) using the SPSS-calculation program (SPSS GmbH Software, Munich). Young's modulus (E) is calculated for 4%, 6%, and 8% strain as the gradient of the stress-strain graph (E=dσ/dε=A×B exp (B×ε). […]
# [2] = Sample YB1, 0.2%, MCT 100%, F6H8 0%
# [3] = Sample YB2, 0.1%, MCT 70%, F6H8 30%
# [4] = Sample YB3, 0.1%, MCT 50%, F6H8 50%
structure (smiles),measurement,setting,value
"CCCC(=O)OC[C@@H](OC(=O)CCC)[C@@H](OC(=O)CCC)[C@H](Cn1c2nc(=O)[nH]c(=O)c-2nc2cc(C)c(C)cc21)OC(=O)CCC [RTB, (2R,3S,4S)-5-(7,8-dimethyl-2,4-dioxo-3,4-dihydrobenzo[g]pteridin-10(2H)-yl) pentane-1,2,3,4-tetrayl tetrabutyrate]",RTB 0 hr,[1]; [2],98.76%
same,RTB 1 Month,[1]; [2],98.71%
same,RTB 14 Days,[1]; [2],98.76%
same,Impur. 0 hr,[1]; [2],1.16%
same,Impur. 1 Month,[1]; [2],1.15%
same,Impur. 14 Days,[1]; [2],1.16%
same,RTB 0 hr,[1]; [3],98.85%
same,RTB 1 Month,[1]; [3],99.05%
same,RTB 14 Days,[1]; [3],98.94%
same,Impur. 0 hr,[1]; [3],1.14%
same,Impur. 1 Month,[1]; [3],0.95%
same,Impur. 14 Days,[1]; [3],1.06%
same,RTB 0 hr,[1]; [4],98.87%
same,RTB 1 Month,[1]; [4],98.99%
same,RTB 14 Days,[1]; [4],98.92%
same,Impur. 0 hr,[1]; [4],1.13%
same,Impur. 1 Month,[1]; [4],1.02%
same,Impur. 14 Days,[1]; [4],1.07%
same,"stress using strain, treated vs untreated corneas",porcine corneas,greater in the treated corneas
